Data from PubChem BioAssay AID328 (DTP/NCI, 2004).
Inconclusive results and toxic doses are left out. The calls were made as follows: active = survival T/C of 150% or more; inactive = T/C below 125% in these data. Residues, ends and D or L forms follow the SMILES beside them. *: point of attachment. Boc = CC(C)(C)OC(=O)*; OBn = c1ccc(CO*)cc1

System: BDF1 mice, P388 leukemia ip, median survival T/C
Assay: NCI In Vivo Anticancer Drug Screen. Data for tumor model P388 Leukemia (intraperitoneal) in B6D2F1 (BDF1) mice
Details: endpoint: median survival time, higher = longer survival
Outline: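 T/C = treated-group survival ÷ vehicle-control survival; tumour transplanted into mice before dosing.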

Measured: T/C

CN(C)C(=O)c1cccc(COc2ccc(N3C(N)=NC(N)=NC3(C)C)cc2Cl)c1
inactive: dose: 4.0 mg/kg/injection, schedule: Q03HX024 (ip), vehicle: saline 100 % of control | dose: 8.0 mg/kg/injection, schedule: Q03HX016 (ip), vehicle: saline 100 % of control | dose: 16.0 mg/kg/injection, schedule: Q01DX009 (ip), vehicle: saline 90 % of control | dose: 16.0 mg/kg/injection, schedule: Q01DX009 (sc), vehicle: saline 100 % of control | dose: 16.0 mg/kg/injection, schedule: Q03HX016 (ip), vehicle: saline 100 % of control | dose: 16.0 mg/kg/injection, schedule: Q03HX024 (ip), vehicle: saline 118 % of control | dose: 32.0 mg/kg/injection, schedule: Q01DX009 (ip), vehicle: saline 118 % of control | dose: 32.0 mg/kg/injection, schedule: Q01DX009 (sc), vehicle: saline 90 % of control | dose: 32.0 mg/kg/injection, schedule: Q03HX016 (ip), vehicle: saline 118 % of control | dose: 32.0 mg/kg/injection, schedule: Q04DX003 (ip), vehicle: saline 100 % of control | dose: 64.0 mg/kg/injection, schedule: Q01DX001 (ip), vehicle: saline 100 % of control | dose: 64.0 mg/kg/injection, schedule: Q01DX001 (sc), vehicle: saline 90 % of control | dose: 64.0 mg/kg/injection, schedule: Q01DX009 (oral), vehicle: saline 90 % of control | dose: 64.0 mg/kg/injection, schedule: Q04DX003 (ip), vehicle: saline 100 % of control | dose: 64.0 mg/kg/injection, schedule: Q08DX002 (ip), vehicle: saline 100 % of control | dose: 128.0 mg/kg/injection, schedule: Q01DX001 (oral), vehicle: saline 90 % of control | dose: 128.0 mg/kg/injection, schedule: Q01DX001 (sc), vehicle: saline 100 % of control | dose: 128.0 mg/kg/injection, schedule: Q01DX009 (oral), vehicle: saline 95 % of control | dose: 256.0 mg/kg/injection, schedule: Q01DX001 (oral), vehicle: saline 95 % of control | dose: 256.0 mg/kg/injection, schedule: Q01DX001 (sc), vehicle: saline 90 % of control | dose: 512.0 mg/kg/injection, schedule: Q01DX001 (oral), vehicle: saline 90 % of control | dose: 512.0 mg/kg/injection, schedule: Q01DX001 (sc), vehicle: saline 100 % of control | dose: 1024.0 mg/kg/injection, schedule: Q01DX001 (oral), vehicle: saline 95 % of control

CC(C)(C)OC(=O)NCC(=O)NCC(=O)NCC(=O)OCc1ccccc1 (Boc-Gly-Gly-Gly-OBn)
inactive: dose: 50.0 mg/kg/injection, schedule: Q01DX005 (ip), vehicle: saline with Tween-80 95 % of control | dose: 100.0 mg/kg/injection, schedule: Q01DX005 (ip), vehicle: saline with Tween-80 98 % of control

CCCCN(C)N=Nc1ccccc1C(N)=O
inactive: dose: 50.0 mg/kg/injection, schedule: Q04DX003 (ip), vehicle: Klucel (hydroxypropylcellulose) (HPC) 100 % of control | dose: 100.0 mg/kg/injection, schedule: Q01DX009 (ip), vehicle: saline with Tween-80 120 % of control | dose: 100.0 mg/kg/injection, schedule: Q04DX003 (ip), vehicle: Klucel (hydroxypropylcellulose) (HPC) 97 % of control | dose: 200.0 mg/kg/injection, schedule: Q04DX003 (ip), vehicle: Klucel (hydroxypropylcellulose) (HPC) 109 % of control | dose: 400.0 mg/kg/injection, schedule: Q04DX003 (ip), vehicle: Klucel (hydroxypropylcellulose) (HPC) 103 % of control

CCN1c2c(nc(N)[nH]c2=O)NCC1CNc1ccc(C(=O)NC(CCC(=O)O)C(=O)O)cc1 (configuration not stated)
inactive: dose: 100.0 mg/kg/injection, schedule: Q01DX009 (ip), vehicle: saline 101 % of control | dose: 200.0 mg/kg/injection, schedule: Q01DX009 (ip), vehicle: saline 105 % of control | dose: 400.0 mg/kg/injection, schedule: Q01DX009 (ip), vehicle: saline 105 % of control

C[C@H]1C=C(O)C(=O)[C@@]2(C)C[C@H]3CCC(=O)O[C@H]3C[C@H]12
inactive: dose: 2.5 mg/kg/injection, schedule: Q01DX009 (ip), vehicle: saline + alcohol 105 % of control | dose: 5.0 mg/kg/injection, schedule: Q01DX009 (ip), vehicle: saline + alcohol 107 % of control | dose: 10.0 mg/kg/injection, schedule: Q01DX009 (ip), vehicle: saline + alcohol 91 % of control | dose: 20.0 mg/kg/injection, schedule: Q01DX009 (ip), vehicle: saline + alcohol 100 % of control
